Test results taken from patent US11357779B2 (G1 Therapeutics, Inc., priority 2018, dated 2022).
Like-named read-outs stand apart in the source and are kept apart here.

Test: Plasma concentration versus time of Compound I and metabolite Compound III in patients dosed QD or BID with Form B of Compound II plus fulvestrant
Format: in vivo, human
Conditions: human, plasma, oral; for concentration at 22 day: Day 22; for concentration at 24 h: Day 1, […]
From the text: Patients were enrolled into 1 of 2 parallel, independently operating, dose-escalation dosing cohorts with Form B of Compound II administered continuously either once daily (QD) or twice daily (BID) with food with fixed-dose fulvestrant (intramuscularly every 14 days for the first three injections and then every 28 days). Pre- or perimenopausal patients also received goserelin for the duration of study treatment. A […] agonist was started at least 28 days before the first dose of Form B, and those patients who were taking another LHRH agonist were switched to goserelin on Day 1. Patients were split into […] cohorts providing once a day (QD) dosing of 200 mg, 300 mg, 400 mg, 500 mg, or 650 mg of Form B, or twice a day (BID) dosing of 100 mg, 150 mg, or 200 mg of Form B. The second dose in BID cohorts was not administered in the evening until at least 12 hours after the initial morning dose of Form B. The dosing cohorts for Form B of Compound II are provided in Table 1.
Blood samples were collected at the following time points relative to the morning dose of Form B at Day 1 and at Day 29: pre-dose (0 hour) and 1, 2, 3, 4, 6, 8, 10, 12 (prior to the evening dose in the BID cohorts), and 24 (prior to the next day's morning dose) hours after dosing. A 5-minute time window was allowed for samples collected between the predose and 3 hours after Form B dosing. A 15-minute window was allowed for samples collected between 4 to 12 hours after Form B dosing. A 1-hour window was allowed for the sample collected 24 hours after Form B dosing. Blood samples for Compound I PK trough levels were collected pre-dose at Day 8, Day 15, and Day 22 prior to the morning administration of Compound I. Plasma concentrations of Compound I and its metabolite, Compound III, were measured using validated methods.
Analysis of plasma concentration versus time data for calculation of standard pharmacokinetic (PK) parameters following oral administration was conducted using Phoenix WinNonlin version 6.3 using actual blood sampling times.

`CC(C)N1CCN(c2ccc(Nc3ncc4cc5n(c4n3)C3(CCCCC3)CNC5=O)nc2)CC1` [Compound I, 2′-((5-(4-isopropylpiperazin-1-yl)pyridin-2-yl)amino)-7′,8′-dihydro-6′H-spiro[cyclohexane-1,9′-pyrazino[1′,2′:1,5]pyrrolo[2,3-d]pyrimidin]-6′-one] gave a concentration at 15 day (150 mg, Cohort 7, 150 mg BID of Form B, Day 15, read-out: Trough Compound I Concentration, Min) of 15.5 ng/mL, a concentration at 22 day (150 mg, Cohort 7, 150 mg BID of Form B, read-out: Trough Compound I Concentration, Max) of 30.5 ng/mL and a concentration at 22 day (150 mg, Cohort 7, 150 mg BID of Form B, read-out: Trough Compound I Concentration, Median) of 15.9 ng/mL. The concentration at 22 day (150 mg, Cohort 7, 150 mg BID of Form B, read-out: Trough Compound I Concentration, Min) was 15.5 ng/mL, the concentration at 0 h (150 mg, Cohort 7, 150 mg BID of Form B, Day 29, 0.0 h, read-out: Compound I Concentration, Max) was 51.1 ng/mL and the concentration at 0 h (150 mg, Cohort 7, 150 mg BID of Form B, Day 29, 0.0 h, read-out: Compound I Concentration, Median) was 18.5 ng/mL. It also gave a concentration at 1 h (150 mg, Cohort 7, 150 mg BID of Form B, Day 29, 1.0 h, read-out: Compound I Concentration, Median) of 28.7 ng/mL, a concentration at 2 h (150 mg, Cohort 7, 150 mg BID of Form B, Day 29, 2.0 h, read-out: Compound I Concentration, Median) of 34.3 ng/mL and a concentration at 3 h (150 mg, Cohort 7, 150 mg BID of Form B, Day 29, 3.0 h, read-out: Compound I Concentration, Median) of 35.6 ng/mL. The concentration at 4 h (150 mg, Cohort 7, 150 mg BID of Form B, Day 29, 4.0 h, read-out: Compound I Concentration, Median) was 36.9 ng/mL, the concentration at 6 h (150 mg, Cohort 7, 150 mg BID of Form B, Day 29, 6.0 h, read-out: Compound I Concentration, Median) was 26.5 ng/mL and the concentration at 8 h (150 mg, Cohort 7, 150 mg BID of Form B, Day 29, 8.0 h, read-out: Compound I Concentration, Median) was 26.9 ng/mL. For the same compound, the concentration at 10 h (150 mg, Cohort 7, 150 mg BID of Form B, Day 29, 10.0 h, read-out: Compound I Concentration, Median) was 23.8 ng/mL, the concentration at 12 h (150 mg, Cohort 7, 150 mg BID of Form B, Day 29, 12.0 h, read-out: Compound I Concentration, Median) was 17.3 ng/mL and the concentration at 0 h (200 mg, 200 mg BID of Form B, Day 1, 0.0 h, Mean, read-out: Compound I Concentration) was 0 ng/mL. The concentration at 0 h (200 mg, 200 mg BID of Form B, Day 1, 0.0 h, Median, read-out: Compound I Concentration) was 0 ng/mL, the concentration at 1 h (200 mg, 200 mg BID of Form B, Day 1, 1.0 h, Mean, read-out: Compound I Concentration) was 5.79 ng/mL and the concentration at 1 h (200 mg, 200 mg BID of Form B, Day 1, 1.0 h, Median, read-out: Compound I Concentration) was 6.13 ng/mL. The concentration at 2 h (200 mg, 200 mg BID of Form B, Day 1, 2.0 h, Mean, read-out: Compound I Concentration) was 9.42 ng/mL, the concentration at 2 h (200 mg, 200 mg BID of Form B, Day 1, 2.0 h, Median, read-out: Compound I Concentration) was 11.8 ng/mL and the concentration at 3 h (200 mg, 200 mg BID of Form B, Day 1, 3.0 h, Mean, read-out: Compound I Concentration) was 12.8 ng/mL. The concentration at 3 h (200 mg, 200 mg BID of Form B, Day 1, 3.0 h, Median, read-out: Compound I Concentration) was 14.8 ng/mL, the concentration at 4 h (200 mg, 200 mg BID of Form B, Day 1, 4.0 h, Mean, read-out: Compound I Concentration) was 15.5 ng/mL and the concentration at 4 h (200 mg, 200 mg BID of Form B, Day 1, 4.0 h, Median, read-out: Compound I Concentration) was 14.9 ng/mL. It also gave a concentration at 6 h (200 mg, 200 mg BID of Form B, Day 1, 6.0 h, Mean, read-out: Compound I Concentration) of 15.5 ng/mL, a concentration at 6 h (200 mg, 200 mg BID of Form B, Day 1, 6.0 h, Median, read-out: Compound I Concentration) of 17.1 ng/mL and a concentration at 8 h (200 mg, 200 mg BID of Form B, Day 1, 8.0 h, Mean, read-out: Compound I Concentration) of 8.94 ng/mL. The concentration at 8 h (200 mg, 200 mg BID of Form B, Day 1, 8.0 h, Median, read-out: Compound I Concentration) was 9.13 ng/mL, the concentration at 10 h (200 mg, 200 mg BID of Form B, Day 1, 10.0 h, Mean, read-out: Compound I Concentration) was 6.61 ng/mL and the concentration at 10 h (200 mg, 200 mg BID of Form B, Day 1, 10.0 h, Median, read-out: Compound I Concentration) was 6.33 ng/mL. The concentration at 12 h (200 mg, 200 mg BID of Form B, Day 1, 12.0 h, Mean, read-out: Compound I Concentration) was 5.64 ng/mL, the concentration at 12 h (200 mg, 200 mg BID of Form B, Day 1, 12.0 h, Median, read-out: Compound I Concentration) was 4.89 ng/mL and the concentration at 0 h (200 mg, 200 mg QD of Form B, Day 1, 0.0 h, Mean, read-out: Compound I Concentration) was 0 ng/mL. For the same compound, the concentration at 0 h (200 mg, 200 mg QD of Form B, Day 1, 0.0 h, Median, read-out: Compound I Concentration) was 0 ng/mL, the concentration at 1 h (200 mg, 200 mg QD of Form B, Day 1, 1.0 h, Mean, read-out: Compound I Concentration) was 8.42 ng/mL and the concentration at 1 h (200 mg, 200 mg QD of Form B, Day 1, 1.0 h, Median, read-out: Compound I Concentration) was 3.65 ng/mL. For the same compound, the concentration at 2 h (200 mg, 200 mg QD of Form B, Day 1, 2.0 h, Mean, read-out: Compound I Concentration) was 13.6 ng/mL, the concentration at 2 h (200 mg, 200 mg QD of Form B, Day 1, 2.0 h, Median, read-out: Compound I Concentration) was 12.3 ng/mL and the concentration at 3 h (200 mg, 200 mg QD of Form B, Day 1, 3.0 h, Mean, read-out: Compound I Concentration) was 20.2 ng/mL. It also gave a concentration at 3 h (200 mg, 200 mg QD of Form B, Day 1, 3.0 h, Median, read-out: Compound I Concentration) of 18.1 ng/mL, a concentration at 4 h (200 mg, 200 mg QD of Form B, Day 1, 4.0 h, Mean, read-out: Compound I Concentration) of 25 ng/mL and a concentration at 4 h (200 mg, 200 mg QD of Form B, Day 1, 4.0 h, Median, read-out: Compound I Concentration) of 27 ng/mL. For the same compound, the concentration at 6 h (200 mg, 200 mg QD of Form B, Day 1, 6.0 h, Mean, read-out: Compound I Concentration) was 16.8 ng/mL, the concentration at 6 h (200 mg, 200 mg QD of Form B, Day 1, 6.0 h, Median, read-out: Compound I Concentration) was 17.7 ng/mL and the concentration at 8 h (200 mg, 200 mg QD of Form B, Day 1, 8.0 h, Mean, read-out: Compound I Concentration) was 11.6 ng/mL. The concentration at 8 h (200 mg, 200 mg QD of Form B, Day 1, 8.0 h, Median, read-out: Compound I Concentration) was 12.2 ng/mL, the concentration at 10 h (200 mg, 200 mg QD of Form B, Day 1, 10.0 h, Mean, read-out: Compound I Concentration) was 8.28 ng/mL and the concentration at 10 h (200 mg, 200 mg QD of Form B, Day 1, 10.0 h, Median, read-out: Compound I Concentration) was 9.13 ng/mL. The concentration at 12 h (200 mg, 200 mg QD of Form B, Day 1, 12.0 h, Mean, read-out: Compound I Concentration) was 6.29 ng/mL, the concentration at 12 h (200 mg, 200 mg QD of Form B, Day 1, 12.0 h, Median, read-out: Compound I Concentration) was 6.43 ng/mL and the concentration at 24 h (200 mg, 200 mg QD of Form B, Mean, read-out: Compound I Concentration) was 3.61 ng/mL. For the same compound, the concentration at 24 h (200 mg, 200 mg QD of Form B, Median, read-out: Compound I Concentration) was 3.24 ng/mL, the concentration at 0 h (200 mg, 200 mg QD of Form B, Day 29, 0.0 h, Mean, read-out: Compound I Concentration) was 4.05 ng/mL and the concentration at 0 h (200 mg, 200 mg QD of Form B, Day 29, 0.0 h, Median, read-out: Compound I Concentration) was 4.1 ng/mL. The concentration at 1 h (200 mg, 200 mg QD of Form B, Day 29, 1.0 h, Mean, read-out: Compound I Concentration) was 5.12 ng/mL, the concentration at 1 h (200 mg, 200 mg QD of Form B, Day 29, 1.0 h, Median, read-out: Compound I Concentration) was 5.35 ng/mL and the concentration at 2 h (200 mg, 200 mg QD of Form B, Day 29, 2.0 h, Mean, read-out: Compound I Concentration) was 6.92 ng/mL. The concentration at 2 h (200 mg, 200 mg QD of Form B, Day 29, 2.0 h, Median, read-out: Compound I Concentration) was 7.27 ng/mL and the concentration at 3 h (200 mg, 200 mg QD of Form B, Day 29, 3.0 h, Mean, read-out: Compound I Concentration) was 12.5 ng/mL.
